Patent publication US11179414B2, “Method for producing protease degradation composition” (LAIMU CORPORATION, priority 2018, dated 2021)

System: adult-derived normal human fibroblasts
Test: Collagen production promoting test (human collagen type 1 ELISA of supernatant)
Assay type: cell-based
Settings: final concentration 1 mg/mL; culture for 3 days; mean of 5 tests
Procedure: As the cells for test, adult-derived normal human fibroblasts bought from Kurabo Industries Ltd. were used.
As a cell growth medium, DMEM added with 10% FBS and […] mixed solution was used; and as a test medium, DMEM added with 1% FBS and 1% penicillin-streptomycin mixed solution was used.
Adult-derived normal human fibroblasts were sown and initiated in a cell growth medium inside a cell culture flask (Corning's T-75), and cultured in a moist environment at 37° C. in the presence of 5% CO2. During this, the medium was replaced every other day, and at the time when the culture reached 80% confluent growth, the cells were collected and used in the following tests.
The cultured fibroblasts were sown in a 96-well plate to be 5×10^3 cells/0.1 mL/well, and cultured therein at 37° C. in the presence of 5% CO2 for 1 day. Subsequently, the cell growth medium in each well was replaced with each test medium added with the composition 1 or L-ascorbic acid 2-glucoside, or with a test medium not added with them (control medium). […] Subsequently, the cells were cultured at 37° C. in the presence of 5% CO2 for 3 days, then the supernatant of the test medium in each well was collected, and using a human collagen-type 1 ELISA kit, the I-type collagen concentration in the supernatant was measured. […]

## O=C1O[C@H]([C@@H](O)CO)C(O)=C1O[C@H]1O[C@H](CO)[C@@H](O)[C@H](O)[C@H]1O [L-ascorbic Acid 2-Glucoside, L-ascorbic acid 2-glucoside]
  Collagen Production Amount (I-type collagen concentration in supernatant): 4.29 µg/mL
